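Results reflect a 48-hour exposure of cells in 96-well plates to compound at five concentrations. GI50: concentration for 50% inhibition of growth. TGI: total growth inhibition.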
Tests used:
Assay in all cases: growth of human tumour cells (NCI), 48 h
KM12 colon = tested on: KM12 colon
OVCAR-8 ovarian = tested on: OVCAR-8 ovarian
SNB-19 CNS = tested on: SNB-19 CNS
SK-MEL-2 melanoma = tested on: SK-MEL-2 melanoma
UACC-257 melanoma = tested on: UACC-257 melanoma
SK-MEL-5 melanoma = tested on: SK-MEL-5 melanoma
NCI-H226 lung = tested on: NCI-H226 lung
RPMI-8226 leukemia = tested on: RPMI-8226 leukemia
NCI-H522 lung = tested on: NCI-H522 lung
DU-145 prostate = tested on: DU-145 prostate

Compound	TGI (KM12 colon) [µM]	TGI (OVCAR-8 ovarian) [µM]	TGI (SNB-19 CNS) [µM]	TGI (SK-MEL-2 melanoma) [µM]	TGI (UACC-257 melanoma) [µM]	TGI (SK-MEL-5 melanoma) [µM]	TGI (NCI-H226 lung) [µM]	TGI (RPMI-8226 leukemia) [µM]	TGI (NCI-H522 lung) [µM]	GI50 (KM12 colon) [µM]	GI50 (SNB-19 CNS) [µM]	GI50 (SK-MEL-2 melanoma) [µM]	GI50 (UACC-257 melanoma) [µM]	GI50 (SK-MEL-5 melanoma) [µM]	GI50 (NCI-H226 lung) [µM]	GI50 (OVCAR-8 ovarian) [µM]	GI50 (RPMI-8226 leukemia) [µM]	TGI (DU-145 prostate) [µM]
CCOC(=O)c1nn2c(nc1=O)sc1ccc3ccccc3c12	> 100	> 100	> 100	> 100	> 100	> 100	> 100	> 100										
CS(=O)(=O)OC1CCC2(C#N)CCC1C2=O (stereo not drawn)	> 100	> 100	> 100	> 100	> 100	> 100	> 100	44.4	> 100									
NC(=O)C(=O)N/N=C1\C(=O)N(c2ccc(Cl)cc2Cl)C(=O)C1C(=O)Nc1ccc(Cl)cc1Cl (stereo not drawn)	> 100	> 100	> 100	> 100	> 100	> 100	> 100	> 100	> 100									
Cc1cccc(/C=C/c2c(C(=O)/C=C/c3ccccc3)c(C)nc3ccccc23)c1	3.56		3.04	3.63	3.28	2.99	3.82			1.72	1.67	1.77	1.65	1.64	1.73			
N.N.N.N.N.NC(=O)c1nn[n-]n1.[Cl-].[Co+3]	> 100	> 100	> 100	> 100	> 100	> 100		> 100		> 100	> 100	> 100	> 100	> 100		> 100	> 100	
CCCCCCCCCCCc1nnc(N)o1	> 100	> 100	50.7	> 100	> 100		> 100	> 100	> 100									
CC(C)=CC1C[C@H](C2CC=C3C2(C)CCC2[C@@]3(C)C(=O)CC3[C@]2(C)C=CC(=O)[C@]3(C)CO)CO1 (stereo partly drawn)	19.9	> 24.4	42.9	14.8	30.8	25		15.3	8.71									
O=C(O)CCCSC(=O)Nc1ccc(N=Nc2ccccc2)cc1	> 100	> 100	> 100	> 100	> 100		> 100	> 100	> 100									
CC(C)Cn1cnc2c(SCc3ccc(Cl)cc3Cl)nc(N)nc21	> 100	93.3	> 100	> 100	74.6	22.8		74.8	37									> 100
O=C(O)CCN(CCCCN(CCC(=O)O)CCC(=O)O)CCC(=O)O	> 100	> 100		> 100		> 100		> 100	> 100									
CCOc1cccc(/C=N/N=C2\C(=O)Nc3c(Cl)cc(Cl)cc32)c1O	> 100	> 100	> 100	> 100	> 100	> 100	> 100											

From PubChem BioAssay (NCI)
